Source: article PMC8868160, “Antioxidant and Anti-α-Glucosidase Activities of Various Solvent Extracts and Major Bioactive Components from the Fruits of Crataegus pinnatifida” (Antioxidants, 2022)
pIC50: −log10 of the molar value. Read-outs that look alike come from different tables or passages of the source.

How the values were obtained:
[1] = ABTS radical scavenging activity; assay type: biochemical
Description: ABTS radical scavenging activity of each extract was measured based on the method with slight changes. In brief, the stock of working solution was prepared by the mix of 28 mM ABTS solution and 9.6 mM potassium persulfate with ddH2O (final concentration, 1/1, v/v) and leaving the mixture in the dark for about 16 h at room temperature before use. The working solution was diluted by EtOH to reach the absorbance of 0.70 ± 0.02 at 740 nm for further experiments. Different concentrations (200, 100, 50, 20, and 12.5 µg/mL) of extracts or compounds (10 µL) were mixed with the working solution (190 μL). The mixture was incubated at room temperature for 6 min, the antioxidant activity of the mixture was determined by calculating the decrease in absorbance measured at 740 nm by the following equation:ABTS radical inhibiting activity (%) = (Ac − At)/Ac × 100,
Where Ac and At are the absorbance of the control (untreated group) and test sample, respectively. The IC50 values of all tested activities were determined by the liner regression of the percentage of remaining ABTS radical against the sample’s concentration.

[2] = DPPH radical scavenging activity; assay type: biochemical
Description: The scavenging activity of DPPH radical was investigated as described with slight modification. DPPH solution was prepared diluted by EtOH to reach the final concentration of 200 µM. Different concentrations (200, 100, 50, 25, and 12.5 µg/mL) of extracts or compounds (100 µL) were mixed with DPPH solution (100 µL) and incubated for 30 min at room temperature and in darkness, and the absorbance of the mixture was measured at 520 nm. DPPH radical scavenging activity was calculated with the following formula: DPPH scavenging activity (%) = (Ac − At)/Ac × 100, where At is the absorbance of the test sample, and Ac is the absorbance of the control (untreated group). BHT was used as the positive control. All half-maximal inhibitory concentration (IC50) values of tested activities were determined by the linear regression of the percentage of remaining DPPH radical against the sample’s concentration.

[3] = Hydroxyl radical scavenging activity (Fenton reaction, deoxyribose); assay type: biochemical
Description: The scavenging activity of hydroxyl radical was measured based on the method described by Mathew and Abraham with slight revision. In short, different concentrations (400, 200, 10, 50, and 25 µg/mL) of extracts or compounds (200 μL) were mixed with working solution (200 μL) contained 1 mM FeCl3, 1 mM EDTA, and 2.8 mM deoxyribose. Then, 20 μL ascorbic acid (1 mM) and 100 μL H2O2 (20 mM) in sodium phosphate buffer (20 mM pH 7.4) was added. The mixture was incubated in a water bath at 37 °C for 1 h to trigger the Fenton reaction and form a hydroxyl radical. After incubation, 2.8% TCA (200 μL) and 1% TBA (200 μL) were added and boiled in the dry bath at 100 °C for 1 h. The mixture was measured at 532 nm by the following equation:Hydroxyl radical scavenging activity (%) = (Ac − At)/Ac × 100, where At and Ac are the absorbance of the test sample and the control (untreated group), respectively. The IC50 values of all tested activities were determined by the linear regression of the percentage of remaining hydroxyl radical against the sample’s concentration.

[4] = Ferric reducing antioxidant power (FRAP); assay type: biochemical
Description: Ferric reducing antioxidant power was measured based on previous study with slight modification. The working solution was mixed with acetate buffer (pH 3.6), ferric chloride solution (20 mM), and TPTZ solution (10 mM TPTZ in 40 mM HCl) in a proportion of 10:1:1, respectively, and freshly prepared before used. An amount of 900 μL of the working solution was warmed to 37 °C and then mixed with 100 μL of the diluted sample, blank or standard in a microcentrifuge tube. The tubes were vortexed and in the dry bath at 37 °C for 40 min. Absorbance was measured at 593 nm. […] Results are expressed in mM TE/g dry weight. Additional dilution was needed if the FRAP value measured was over the linear range of the standard curve.

α-glucosidase = molecular target: T1, α-glucosidase (Saccharomyces cerevisiae, UniProt P53341); assay: biochemical
T1 construct: purchased Sigma-Aldrich
T1 sequence (P53341 whole entry): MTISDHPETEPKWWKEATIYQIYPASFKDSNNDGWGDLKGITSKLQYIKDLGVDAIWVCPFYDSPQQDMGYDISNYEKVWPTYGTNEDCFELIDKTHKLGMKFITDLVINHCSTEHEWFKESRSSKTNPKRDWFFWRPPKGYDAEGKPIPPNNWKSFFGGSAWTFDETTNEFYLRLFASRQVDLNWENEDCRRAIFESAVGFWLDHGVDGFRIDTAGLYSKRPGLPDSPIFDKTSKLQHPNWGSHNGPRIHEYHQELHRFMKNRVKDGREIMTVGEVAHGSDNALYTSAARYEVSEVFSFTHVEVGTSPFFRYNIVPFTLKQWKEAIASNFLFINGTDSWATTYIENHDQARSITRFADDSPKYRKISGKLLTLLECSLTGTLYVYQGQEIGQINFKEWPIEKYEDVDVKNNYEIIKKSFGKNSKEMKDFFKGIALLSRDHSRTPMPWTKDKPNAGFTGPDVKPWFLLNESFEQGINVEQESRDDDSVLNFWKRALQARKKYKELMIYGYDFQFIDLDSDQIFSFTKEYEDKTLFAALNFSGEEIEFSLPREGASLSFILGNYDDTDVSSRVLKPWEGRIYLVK
Description: The inhibition assay of α-glucosidase was conducted using the conditions previously reported with slight modifications. The α-Glucosidase solution was diluted by 0.1 M sodium phosphate buffer (pH 6.8) to 1 U/mL. […] Subsequently, p-NPG (0.53 mM; 380 μL), the substrate, was added and incubated in dry baths at 37 °C for 40 min after the mixture vortexed. The reaction was terminated after adding 0.1 M Na2CO3 solution (500 μL). The absorbance of released p-nitrophenol (p-PNP) was measured by calculating the decrease in absorbance measured at 400 nm by the following equation:α-Glucosidase inhibition (%) = (Ac − At)/Ac × 100, where Ac is the absorbance of the control (untreated group), and At is the absorbance of the test sample. The IC50 values of all tested activities were determined by the linear regression of the percentage of remaining α-glucosidase against the sample concentration.

[5] = Superoxide radical scavenging activity (PMS/NADH-NBT system); assay type: biochemical; conditions: isolated components (Table 5)
Description: The scavenging activity of superoxide anion radical (O2^•−) was evaluated using a modified method. NBT (300 μM), NADH (468 μM), and PMS (120 μM) were prepared with dilution by Tris-HCl buffer (16 mM, pH 8.0), respectively. An amount of 50 μL of NBT, PMS, and different concentrations (400, 200, 10, 50, and 25 µg/mL) of extracts or compounds were mixed. An amount of 50 μL NADH solution was added, and the reaction was initiated to produce superoxide radicals. The absorbance was measured at 560 nm after incubating at room temperature for 5 min. The scavenging activity was measured by the following equation:Superoxide radical scavenging activity = (Ac − At)/Ac × 100, where At is the absorbance of the test sample, and Ac is the absorbance of the control (untreated group). The IC50 values of all tested activities were determined by the linear regression of the percentage of remaining superoxide radical against the sample concentration.

[6] = isolated components, BHT positive control (Table 5)
[7] = solvent extracts, BHT positive control (Table 2)
[8] = isolated components, mM Trolox equivalents per gram (Table 5)

ABTS IC50 [1, 7] | DPPH IC50 ([2]; solvent extracts of C. pinnatifida fruits, BHT positive control (Table 2)) | Hydroxyl IC50 [3, 6] | Hydroxyl IC50 [3, 7] | IC50 (α-glucosidase; read-out: α-Glucosidase IC50 (converted)) | Compound | ABTS IC50 [1, 6] | DPPH IC50 [2, 6] | FRAP (TE) [4, 8] | FRAP (TE) ([4]; millimolar Trolox equivalents per gram of extract (Table 2)) | pIC50 (α-glucosidase) | Superoxide IC50 [5] | FRAP (TE) ([4]; isolated components, mM Trolox equivalents per gram (Table 5), listed as procyanidin B2) | FRAP (TE) ([4]; isolated components, mM Trolox equivalents per gram (Table 5), listed as epicatechin)
12.34 ± 0.29 µg/mL | 34.28 ± 1.40 µg/mL | 60.62 ± 2.58 µg/mL | 61.51 ± 2.46 µg/mL | – | Cc1cc(C(C)(C)C)c(O)c(C(C)(C)C)c1 [BHT, Butylated hydroxytoluene, reference compound] | 16.13 ± 3.29 µg/mL | 24.04 ± 4.40 µg/mL | 4257.97 ± 44.90 mM/g | 4257.97 ± 44.90 mM/g | – | – | – | –
– | – | 20 ± 3.49 µg/mL | – | 282 µM | Oc1cc(O)c2c(c1)O[C@H](c1ccc(O)c(O)c1)[C@H](O)C2 [Epicatechin, epicatechin] | 3.75 ± 0.03 µg/mL | 2.53 ± 0.25 µg/mL | 13,165.19 ± 42.42 mM/g | – | – | 41.56 ± 0.20 µg/mL | – | ≥ 7726.67 ± 39.97 mM/g
– | – | – | – | – | O=c1c(O[C@@H]2O[C@H](CO)[C@H](O)[C@H](O)[C@H]2O)c(-c2ccc(O)c(O)c2)oc2cc(O)cc(O)c12 [Hyperoside, hyperoside] | 18.00 ± 0.16 µg/mL | 5.29 ± 0.17 µg/mL | – | – | 4.12 | 10.59 ± 0.22 µg/mL | – | –

Compound | ABTS IC50 [1, 7] | DPPH IC50 ([2]; solvent extracts of C. pinnatifida fruits, BHT positive control (Table 2)) | Hydroxyl IC50 [3, 6] | Hydroxyl IC50 [3, 7] | IC50 (α-glucosidase; read-out: α-Glucosidase IC50 (converted)) | ABTS IC50 [1, 6] | DPPH IC50 [2, 6] | FRAP (TE) [4, 8] | FRAP (TE) ([4]; millimolar Trolox equivalents per gram of extract (Table 2)) | pIC50 (α-glucosidase) | Superoxide IC50 [5] | FRAP (TE) ([4]; isolated components, mM Trolox equivalents per gram (Table 5), listed as procyanidin B2) | FRAP (TE) ([4]; isolated components, mM Trolox equivalents per gram (Table 5), listed as epicatechin)
Oc1cc(O)c2c(c1)O[C@H](c1ccc(O)c(O)c1)[C@H](O)[C@H]2c1c(O)cc(O)c2c1O[C@H](c1ccc(O)c(O)c1)[C@H](O)C2 [Procyanidin B2, procyanidin B2] | – | – | 13.69 ± 1.88 µg/mL | – | – | 2.91 ± 0.57 µg/mL | 2.81 ± 0.08 µg/mL | 11,092.44 ± 32.92 mM/g | – | 3.69 | 37.22 ± 0.63 µg/mL | ≥ 7726.67 ± 39.97 mM/g | –
